Reference: patent US20230000869A1, “NOVEL ALK2 INHIBITORS AND METHODS FOR INHIBITING BMP SIGNALING” (The Brigham and Women's Hospital, Inc., priority 2017, published 2023)

Molecular target: T1, Aldehyde Oxidase (AO) (Homo sapiens, UniProt Q06278)
T1 construct: tissue Frontage Laboratories (performed the study); host or cells: human liver cytosol (HLC), 2 mg/ml
T1 sequence (Q06278 1-1338): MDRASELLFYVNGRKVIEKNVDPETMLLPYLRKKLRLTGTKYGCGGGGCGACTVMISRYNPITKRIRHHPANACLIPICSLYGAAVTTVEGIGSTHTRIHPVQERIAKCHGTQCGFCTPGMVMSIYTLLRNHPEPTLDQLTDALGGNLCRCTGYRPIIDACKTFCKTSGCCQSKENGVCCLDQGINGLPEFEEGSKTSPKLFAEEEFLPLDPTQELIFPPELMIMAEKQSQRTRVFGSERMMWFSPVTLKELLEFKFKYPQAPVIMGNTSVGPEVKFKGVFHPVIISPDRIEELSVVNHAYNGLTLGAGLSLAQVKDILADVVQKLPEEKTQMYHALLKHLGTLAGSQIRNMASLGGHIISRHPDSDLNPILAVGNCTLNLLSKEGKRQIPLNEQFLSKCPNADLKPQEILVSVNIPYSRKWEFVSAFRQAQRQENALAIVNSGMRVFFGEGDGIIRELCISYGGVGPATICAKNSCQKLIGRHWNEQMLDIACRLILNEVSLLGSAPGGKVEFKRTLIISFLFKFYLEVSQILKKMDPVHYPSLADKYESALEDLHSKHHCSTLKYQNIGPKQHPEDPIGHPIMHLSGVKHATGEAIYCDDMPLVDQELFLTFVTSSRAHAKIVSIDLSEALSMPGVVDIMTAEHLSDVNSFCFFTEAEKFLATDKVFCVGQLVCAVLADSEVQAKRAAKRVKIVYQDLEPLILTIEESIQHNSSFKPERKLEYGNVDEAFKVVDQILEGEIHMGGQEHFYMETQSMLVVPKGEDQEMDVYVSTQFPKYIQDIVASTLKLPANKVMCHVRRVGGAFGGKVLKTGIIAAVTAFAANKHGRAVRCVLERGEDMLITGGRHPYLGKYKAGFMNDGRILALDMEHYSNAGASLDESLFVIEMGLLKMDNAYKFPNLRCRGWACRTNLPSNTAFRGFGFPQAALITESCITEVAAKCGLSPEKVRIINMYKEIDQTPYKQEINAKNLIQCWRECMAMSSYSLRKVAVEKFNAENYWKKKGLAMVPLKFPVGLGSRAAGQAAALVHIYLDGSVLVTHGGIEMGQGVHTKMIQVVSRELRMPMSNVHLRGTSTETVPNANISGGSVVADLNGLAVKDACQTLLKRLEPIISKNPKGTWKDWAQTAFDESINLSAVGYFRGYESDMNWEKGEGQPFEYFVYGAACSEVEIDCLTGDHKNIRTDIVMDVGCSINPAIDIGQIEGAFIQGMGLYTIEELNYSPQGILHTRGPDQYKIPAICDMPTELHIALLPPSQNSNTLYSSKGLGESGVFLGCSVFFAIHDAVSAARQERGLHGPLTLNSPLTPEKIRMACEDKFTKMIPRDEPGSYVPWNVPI
Assay: Aldehyde oxidase (AO) oxidation study, metabolic stability in human liver cytosol
Type: in vitro ADME
Conditions: human liver cytosol 2 mg/ml, 1 μM substrate, 37° C.
Method: Experimental Procedure for Aldehyde Oxidase (AO) Oxidation Study (Frontage Laboratories (700 Pennsylvania Dr. Exton, Pa. 19341)
Determination of the of metabolic stability in human liver cytosol (HLC) and the identification of corresponding metabolites was done by incubating substrates (1 μM final concentration for metabolic stability or 10 μM final concentration for metabolite ID) with HLC (2 mg/ml, final concentration) in 100 mM potassium phosphate at pH 7.4. The reaction was initiated by adding HLC without preincubation. The mixture was then incubated at 37° C. for 1 h and samples were taken at 0, 30 and 60 min for analysis. The reaction was terminated by adding acetonitrile (ACN) (3×) followed by vortexing for 1 min then centrifuged. For the metabolic stability study, aliquotes of the supernatants were transferred to clean tubes and directly used for LC/MS/MS analysis. For the identification of metabolites, aliquots of supernatants were transferred to clean tubes and dried under a stream of N2. The residue was reconstituted in 30/70 (v/v) acetonitrile/water solution and injected onto LC/UV/MS system.
The instrument and method for the metabolic stability are as following: LC/MS/MS system: Agilent 1100 HPLC interfaced to Sciex API4000 mass spectrometer (ESI); HPLC column: ACE 3 C18-PFP, 50×2.1 mm, 5 μm. […]

SMILES: c1ccc2c(-c3cnn4cc(-c5ccc(N6CCNCC6)cc5)cnc34)ccnc2c1 [TRND00262637-13]
- 30 minutes (%) (pH 7.4, sample at 30 min): 0.06%
- 60 minutes (%) (pH 7.4, sample at 60 min): 0.02%
